According to the NIST ThermoML archive (doi:10.1016/j.jct.2005.07.009):

Legend:
[1] = xn = mol fraction of the nth substance listed; details: 298.15 K, 101 kPa, Liquid, Vibrating tube method
[2] = excess molar enthalpy (molar enthalpy of mixing); xn = mol fraction of the nth substance listed; details: 298.15 K, 101 kPa, Liquid

BrCCCBr [1,3-dibromopropane] + CCCCC(=O)OCC
Details | excess molar enthalpy [kcal/mol] | mass density [kg/m3]
[1], x2 = 0.0408 | – | 1905.88
[1], x2 = 0.0868 | – | 1836.07
[1], x2 = 0.1296 | – | 1773.38
[1], x2 = 0.177 | – | 1707.11
[1], x2 = 0.273 | – | 1579.99
[1], x2 = 0.325 | – | 1515.4
[1], x2 = 0.3803 | – | 1449.57
[1], x2 = 0.437 | – | 1385.12
[1], x2 = 0.5197 | – | 1296
[1], x2 = 0.6902 | – | 1128.6
[1], x2 = 0.7601 | – | 1065.64
[1], x2 = 0.8344 | – | 1001.96
[1], x2 = 0.9163 | – | 935.2
[2], x2 = 0.0175 | 0.00339 | –
[2], x2 = 0.0382 | 0.00617 | –
[2], x2 = 0.0611 | 0.00844 | –
[2], x2 = 0.0911 | 0.00906 | –
[2], x2 = 0.1259 | 0.00923 | –
[2], x2 = 0.1645 | 0.00882 | –
[2], x2 = 0.205 | 0.00784 | –
[2], x2 = 0.247 | 0.00564 | –
[2], x2 = 0.2878 | 0.00201 | –
[2], x2 = 0.3293 | -0.00241 | –
[2], x2 = 0.3706 | -0.00626 | –
[2], x2 = 0.4062 | -0.00927 | –
[2], x2 = 0.4471 | -0.0122 | –
[2], x2 = 0.4985 | -0.0154 | –
[2], x2 = 0.5544 | -0.017 | –
[2], x2 = 0.6183 | -0.0182 | –
[2], x2 = 0.6862 | -0.0188 | –
[2], x2 = 0.7558 | -0.0182 | –
[2], x2 = 0.8251 | -0.0156 | –
[2], x2 = 0.8833 | -0.0117 | –
[2], x2 = 0.946 | -0.00602 | –

BrCCBr [1,2-dibromoethane] + CCOC(=O)CC
Details | excess molar enthalpy [kcal/mol] | mass density [kg/m3]
[1], x2 = 0.0479 | – | 2086.59
[1], x2 = 0.0959 | – | 2007.68
[1], x2 = 0.1904 | – | 1859.96
[1], x2 = 0.2852 | – | 1720.53
[1], x2 = 0.3448 | – | 1636.9
[1], x2 = 0.4532 | – | 1492.57
[1], x2 = 0.5156 | – | 1413.6
[1], x2 = 0.5836 | – | 1330.59
[1], x2 = 0.6423 | – | 1261.58
[1], x2 = 0.7044 | – | 1190.86
[1], x2 = 0.7717 | – | 1116.79
[1], x2 = 0.8366 | – | 1047.86
[1], x2 = 0.9155 | – | 967.12
[2], x2 = 0.0408 | 0.00294 | –
[2], x2 = 0.0876 | 0.00552 | –
[2], x2 = 0.1399 | 0.00636 | –
[2], x2 = 0.1925 | 0.00495 | –
[2], x2 = 0.2463 | 0.00124 | –
[2], x2 = 0.3001 | -0.00495 | –
[2], x2 = 0.3515 | -0.0114 | –
[2], x2 = 0.3996 | -0.0181 | –
[2], x2 = 0.4154 | -0.0205 | –
[2], x2 = 0.4446 | -0.0241 | –
[2], x2 = 0.4644 | -0.0276 | –
[2], x2 = 0.486 | -0.0301 | –
[2], x2 = 0.522 | -0.0345 | –
[2], x2 = 0.5865 | -0.0383 | –
[2], x2 = 0.6595 | -0.0372 | –
[2], x2 = 0.7397 | -0.0331 | –
[2], x2 = 0.827 | -0.0259 | –
[2], x2 = 0.9159 | -0.0163 | –

BrCCCBr [1,3-dibromopropane] + CCOC=O
Details | excess molar enthalpy [kcal/mol] | mass density [kg/m3]
[1], x2 = 0.0717 | – | 1908.92
[1], x2 = 0.1454 | – | 1844.11
[1], x2 = 0.2149 | – | 1781.28
[1], x2 = 0.2791 | – | 1721.26
[1], x2 = 0.3468 | – | 1656.48
[1], x2 = 0.4099 | – | 1594.33
[1], x2 = 0.4685 | – | 1534.98
[1], x2 = 0.5893 | – | 1407.8
[1], x2 = 0.6459 | – | 1345.63
[1], x2 = 0.6988 | – | 1285.95
[1], x2 = 0.7521 | – | 1224.47
[1], x2 = 0.8028 | – | 1164.26
[1], x2 = 0.8548 | – | 1101.12
[1], x2 = 0.9056 | – | 1037.67
[2], x2 = 0.0727 | 0.0421 | –
[2], x2 = 0.1458 | 0.0721 | –
[2], x2 = 0.2104 | 0.0959 | –
[2], x2 = 0.2886 | 0.113 | –
[2], x2 = 0.3588 | 0.123 | –
[2], x2 = 0.4253 | 0.126 | –
[2], x2 = 0.4828 | 0.125 | –
[2], x2 = 0.5358 | 0.122 | –
[2], x2 = 0.5812 | 0.116 | –
[2], x2 = 0.6324 | 0.109 | –
[2], x2 = 0.6925 | 0.0965 | –
[2], x2 = 0.7529 | 0.0811 | –
[2], x2 = 0.8177 | 0.062 | –
[2], x2 = 0.882 | 0.0414 | –
[2], x2 = 0.9449 | 0.021 | –

BrCCCCCBr [1,5-dibromopentane] + CCCC(=O)OCC
Details | excess molar enthalpy [kcal/mol] | mass density [kg/m3]
[1], x2 = 0.059 | – | 1646.96
[1], x2 = 0.1242 | – | 1594.68
[1], x2 = 0.1821 | – | 1548
[1], x2 = 0.238 | – | 1502.9
[1], x2 = 0.3008 | – | 1451.99
[1], x2 = 0.4202 | – | 1354.48
[1], x2 = 0.5373 | – | 1258.57
[1], x2 = 0.5953 | – | 1210.74
[1], x2 = 0.6536 | – | 1162.53
[1], x2 = 0.7109 | – | 1115.08
[1], x2 = 0.7685 | – | 1067.15
[1], x2 = 0.8314 | – | 1014.81
[1], x2 = 0.8895 | – | 966.17
[2], x2 = 0.0632 | 0.00545 | –
[2], x2 = 0.1296 | 0.00906 | –
[2], x2 = 0.1974 | 0.0117 | –
[2], x2 = 0.2617 | 0.012 | –
[2], x2 = 0.3247 | 0.0105 | –
[2], x2 = 0.3843 | 0.00777 | –
[2], x2 = 0.4396 | 0.00466 | –
[2], x2 = 0.4909 | 0.000693 | –
[2], x2 = 0.5367 | -0.00239 | –
[2], x2 = 0.5745 | -0.00511 | –
[2], x2 = 0.6072 | -0.00657 | –
[2], x2 = 0.6211 | -0.00755 | –
[2], x2 = 0.6798 | -0.00937 | –
[2], x2 = 0.7429 | -0.0104 | –
[2], x2 = 0.8114 | -0.00944 | –
[2], x2 = 0.878 | -0.00696 | –
[2], x2 = 0.9431 | -0.00356 | –
